Laboratory results published in paper PMC7098565 (PLoS ONE, 2020).
Values joined by “and” are separate entries in the source; they are usually repeats but may differ in a detail not shown here. Identical values can stand only once. Like-named read-outs stand apart in the source and are kept apart here.

Experiments:
B16-F10 = test: Cytotoxicity to tumor cells, MTT assay; type: cell-based; conditions: Mus musculus, 24 h, mean ± S.D (n = 3), read-out: IC50 B16F10
CT26.WT = test: Cytotoxicity to tumor cells, MTT assay; type: cell-based; conditions: Mus musculus, mean ± S.D (n = 3)
Protocol: Mouse melanoma cell line B16-F10 (ATCC® Number: CRL-6475™) and mouse cell line CT26.WT (TCM37) were obtained from Cell Culture Center of the Institute of Basic Medical Sciences, Chinese Academy of Medical Sciences. The cells were maintained in DMEM supplemented with 10% (v/v) heat-inactivated fetal bovine serum (FBS) in a humidified 5% CO2 atmosphere at 37 °C. Tumor cells were plated in 96-well plate with a density of 5 × 10^3 cells/well in 100 μL. […] The medium was subsequently discarded, and 150 μL of DMSO was added to dissolve the formazan crystals. The absorbance was measured at 570 nm using a Molecular Devices Spectra Max M5 (Molecular Devices, USA).

Human CD3+ cells [1] = test: Cytotoxicity to human CD3+ cells, CellTiter-Glo (CTG) assay; type: cell-based; conditions: 72 h, aCD3/aCD28 1 μg/mL, mean ± S.D (n = 3)
Protocol: Human CD3^+ cells with the purity above 95% were provided by LDEBIO company (Guangzhou, China). CD3^+ cells were plated in the 96-well plate with a density of 1 × 10^5 cells/well in 100 μL of DMEM medium containing 10% FBS. The 50 μL of anti-CD3 antibody and anti-CD28 antibody (aCD3 and aCD28, final concentration of 1 μg/mL for each) were added into 96-well plate. […] CellTiter-Glo (CTG) reagent was added into the wells to measure CD3^+ cell viability.

Human CD3+ cells [2] = test: IFN-γ secretion by human CD3+ cells in vitro (ELISA), rescue of PD-L1-mediated inhibition; type: cell-based; conditions: for IFN-γl: aCD3/aCD28 1 μg/mL + PD-L1 protein 10 nM, 72 h, single samples
Protocol: Human CD3^+ cells were plated in the 96-well plate with a density of 1 × 10^5 cells/well in 100 μL of DMEM containing 10% FBS. The 50 μL of aCD3 and aCD28 (final concentration of 1 μg/mL for each) were added into 96-well plate without or with 50 μL of human PD-L1 protein (final concentation of 10 nM). […] The supernatants were collected for detection of IFN-γ by using human IFN-γ ELISA Kit.

B16-F10 tumors = test: B16-F10 tumor isograft model, tumor growth; type: in vivo, mice; conditions: for Tumor volume / Tumor weight: single mice
IFN-γ = test: Plasma IFN-γ level in melanoma-bearing mice (ELISA); type: in vivo
T lymphocytes in tumors = test: Flow cytometry of T lymphocytes in tumors from melanoma-bearing mice; type: in vivo; conditions: for % Treg of CD4^+ / % CD3^+ of lymphocyte / % CD4^+ of CD3^+ / % CD8^+ of CD3^+ / % CD8^+IFN-γ of CD3D^+CD8^+: tumor, day 20, single mice; for % Treg of CD4^+: Treg = CD4+CD25+CD127low/-
[3] = Pharmacokinetics in plasma and tumor from melanoma-bearing mice (LC-MS/MS); type: in vivo; conditions: single oral dose 60 mg/kg; for concentration at 1 h / concentration at 3 h: male, C57BL/6NCrl, mouse, plasma, po; for concentration at 1 h / concentration at 3 h / Concentration in Tumor: 60 mg/kg
Protocol: At 1h, 3h and 8h after the dosing, 5 mice were decapitated, respectively, for collecting plasma and tumor tissues. All plasma samples were centrifuged for 10 min at 3000 g, separated and stored at -20 °C for followed analysis. The tumor tissues were homogenated in water (w/v = 1:4). The LC-MS/MS system consisted of an Agilent 1100 series HPLC system (Agilent Technologies, Waldbronn, USA) and a TSQ Quantum Assess tandem mass spectrometer (Thermo Electron Corporation, San Jose, CA, USA) equipped with ESI ion source operation in the positive mode. Data acquisition and processing were accomplished using the Xcaliber workstation. The chromatography separation was performed on a Waters symmetry CLU columns (150 × 2.1 mm i.e., 3.5 am, Warders, USA) with the flow rate of 0.2 ml/min in isocratic elution. The mobile phase consisted of acetonitrile-methanol-water (50:30:20, v/v/v) containing 0.1 mm ammonium acetate and 0.01% glacial acetic acid. The selective reactions monitoring mode was used to detect the analyses. […] The spray voltage was 4 kv. Sheath gas and auxilinry gas were 30 and 5 psi, respectively. The capillary temperature was 350 °C and argon gas pressure was 1.5 milli-Torr.

PD-1 and PD-L1 binding = target: PD-1 and PD-L1 binding; set-up: method as in PMID 27083005; conditions: HTRF binding assay; cited from earlier work
[4] = 30 mg/kg oral twice daily, day 20
[5] = treatment groups (30 and 60 mg/kg), P < 0.05, n = 6

COc1nc(OCc2cccc(-c3ccccc3)c2C)ccc1CNCCNC(C)=O [PCC0208025, N-(2-{[2-Methoxy-6-(2-methyl-biphenyl-3-ylmethoxy)-pyridin-3-ylmethyl]-amino}-ethyl)-acetamide]
IC50 (B16-F10): 32.1 ± 2.3 µM
IC50 (CT26.WT; 24 h): 21.9 ± 2.9 µM
IC50 (CT26.WT; 48 h): 15.3 ± 3.4 µM
IC50 (Human CD3+ cells [1]): 10.3 ± 1.3 µM
PD-L1-mediated inhibition of IFN-γ production (Human CD3+ cells [2]; 0.01 to 1 μM, vs aCD3/aCD28 and PD-L1 group, P < 0.05, n = 6): markedly rescued
IFN-γl (Human CD3+ cells [2]; substance 0.1 mM (so in the source)): 768.3 pg/mL and 1056.6 pg/mL and 850.5 pg/mL and 945.6 pg/mL and 689.7 pg/mL and 789.4 pg/mL
IFN-γl (Human CD3+ cells [2]; substance 1 mM (so in the source)): 798.3 pg/mL and 824.3 pg/mL and 997.0 pg/mL and 723.5 pg/mL and 908.8 pg/mL and 857.7 pg/mL
IFN-γl (Human CD3+ cells [2]; substance 10 mM (so in the source)): 468.7 pg/mL and 398.5 pg/mL and 576.3 pg/mL and 435.3 pg/mL and 587.5 pg/mL and 523.4 pg/mL
tumor weight compared with the control group (B16-F10 tumors; 30 mg/kg and 60 mg/kg, P < 0.05, n = 8): significantly decreased
tumor volumes compared with the control group (B16-F10 tumors; 30 mg/kg and 60 mg/kg, day 20, P < 0.05, n = 8): significantly decreased
Tumor volume (B16-F10 tumors; 30 mg/kg oral twice daily, day 7): 99.3 mm^3 and 102.9 mm^3 and 86.2 mm^3 and 112.1 mm^3 and 129.3 mm^3 and 84.9 mm^3 and 90.7 mm^3 and 100.1 mm^3
Tumor volume (B16-F10 tumors; 30 mg/kg oral twice daily, day 9): 94.0 mm^3 and 102.4 mm^3 and 154.1 mm^3 and 112.8 mm^3 and 131.0 mm^3 and 131.8 mm^3 and 105.3 mm^3 and 143.3 mm^3
Tumor volume (B16-F10 tumors; [4]): 898.0 mm^3 and 1417.3 mm^3 and 1288.9 mm^3 and 1376.0 mm^3 and 1578.0 mm^3 and 1342.0 mm^3 and 1122.6 mm^3 and 879.0 mm^3
Tumor weight (B16-F10 tumors; [4]): 1578.0 mg
IR (inhibition rate of tumor growth) according to tumor weight (B16-F10 tumors; 60 mg/kg oral gavage twice daily, day 20): 50.1%
Tumor volume (B16-F10 tumors; 60 mg/kg oral twice daily, day 7): 88.0 mm^3 and 80.2 mm^3 and 120.2 mm^3 and 108.0 mm^3 and 102.8 mm^3 and 96.6 mm^3 and 115.1 mm^3 and 94.6 mm^3
Tumor weight (B16-F10 tumors; 60 mg/kg oral twice daily, day 20): 1678.4 mg
IFN-γ level in plasma (IFN-γ; 60 mg/kg oral twice daily, day 20, single mice): 1678.5 pg/mL and 1589.6 pg/mL and 1467.7 pg/mL and 1256.8 pg/mL and 1756.2 pg/mL and 1476.1 pg/mL
plasma IFN-γ levels compared with the control group (IFN-γ; 30 and 60 mg/kg, P < 0.05, n = 6): markedly elevated
percentage of CD4^+CD25^+CD127^low/− (Treg) in tumor compared with the control group (T lymphocytes in tumors; 30 mg/kg and 60 mg/kg, P < 0.05, n = 6): significantly decreased
percentage of CD3^+CD4^+ T cells in tumor compared with the control group (T lymphocytes in tumors; 60 mg/kg group, P < 0.05, n = 6): significant decreases
percentage of CD3^+ T cells in tumor compared with the control group (T lymphocytes in tumors; [5]): markedly increased
percentage of CD3^+CD8^+ T cells in tumor compared with the control group (T lymphocytes in tumors; [5]): markedly increased
percentage of CD8^+IFN-γ^+ T cells in tumor compared with the control group (T lymphocytes in tumors; [5]): markedly increased
% Treg of CD4^+ (T lymphocytes in tumors; 30 mg/kg, 30 mg/kg): 26.25% and 33.66% and 35.98% and 35.44% and 36.86% and 31.41%
% CD3^+ of lymphocyte (T lymphocytes in tumors; 30 mg/kg, 30 mg/kg): 58.95% and 61.13% and 52.42% and 62.48% and 58.92% and 54.72%
% CD4^+ of CD3^+ (T lymphocytes in tumors; 30 mg/kg, 30 mg/kg): 38.97% and 39.86% and 36.50% and 29.65% and 37.02% and 40.10%
% CD8^+ of CD3^+ (T lymphocytes in tumors; 30 mg/kg, 30 mg/kg): 38.80% and 39.05% and 45.77% and 42.49% and 39.23% and 36.71%
% CD8^+IFN-γ of CD3D^+CD8^+ (T lymphocytes in tumors; 30 mg/kg, 30 mg/kg): 27.98% and 25.40% and 24.84% and 24.39% and 22.29% and 22.23%
% Treg of CD4^+ (T lymphocytes in tumors; 60 mg/kg, 60 mg/kg): 32.63% and 30.22% and 32.76% and 31.72% and 28.26%
% CD3^+ of lymphocyte (T lymphocytes in tumors; 60 mg/kg, 60 mg/kg): 72.64% and 70.58% and 61.04% and 62.21% and 61.98% and 64.77%
% CD4^+ of CD3^+ (T lymphocytes in tumors; 60 mg/kg, 60 mg/kg): 36.42% and 31.49% and 39.77% and 27.21% and 38.87% and 37.34%
% CD8^+ of CD3^+ (T lymphocytes in tumors; 60 mg/kg, 60 mg/kg): 40.72% and 50.51% and 43.82% and 50.59% and 42.04% and 42.77%
% CD8^+IFN-γ of CD3D^+CD8^+ (T lymphocytes in tumors; 60 mg/kg, 60 mg/kg): 30.80% and 35.94% and 30.46% and 29.24% and 28.35% and 27.49%
concentration at 1 h ([3]; 1h, n = 5, read-out: average concentration in plasma): ~4.36 nM
concentration at 1 h ([3]; 1h, single mice, read-out: Concentration in Plasma): 3.8 nM
concentration at 3 h ([3]; 3h, n = 5, read-out: average concentration in plasma): ~3.94 nM
concentration at 3 h ([3]; 3h, single mice, read-out: Concentration in Plasma): 4.16 nM
average concentration in tumor ([3]; 1h, n = 5): about 160.7 nmol/kg
Concentration in Tumor ([3]; 1h, single mice): 167.3 nmol/kg and 207.3 nmol/kg and 154.8 nmol/kg and 139.1 nmol/kg and 136.3 nmol/kg
average concentration in tumor ([3]; 3h, n = 5): ~196.7 nmol/kg
Concentration in Tumor ([3]; 3h, single mice): 185.3 nmol/kg and 206.5 nmol/kg and 218.5 nmol/kg and 178.7 nmol/kg
average concentration in tumor ([3]; 8h, n = 5): ~127.3 nmol/kg
Concentration in Tumor ([3]; 8h, single mice): 132.4 nmol/kg and 146.7 nmol/kg and 123.3 nmol/kg and 103.8 nmol/kg and 133.2 nmol/kg
IC50 (PD-1 and PD-L1 binding): 0.018 µM
